Measurements from PubChem BioAssay AID1963868 (Molecular Pharmacology Branch, DTP, NCI, 2024).

Test system: KRAS PDC tumor spheroids (HUVEC+MSC), viability
Experiment: Anticancer human tumor 254851-301-R-J1-PDC patient-derived colon carcinoma cell line growth inhibition [KRAS2]
Conditions: for IC50: curve of first compound; for viability, T/C: stronger effect = lower value
Excerpt: Multicellular complex tumor spheroid response to RAS pathway inhibitors in combination with a targeted agents in patient-derived cell lines with oncogenic KRAS variants from multiple cancer types
A high-throughput screen of multi-cell type tumor spheroids was designed to identify active combinations of targeted small molecules and KRAS pathway inhibitors. Complex spheroids include a stromal component modeled by human endothelial cells (HUVEC) and fibroblasts modeled by human mesenchymal stem cells (MSCs). The concentration ranges selected for each drug and investigational agent were based upon clinically achievable concentrations if the clinical Cmax of the agent was known.
Compounds. The drugs and investigational agents: BI-3406 (NSC825286), BAY-293 (NSC824723), batoprotafib (TNO155; NSC825523), sotorasib (AMG 510; NSC818433), MRTX1257 (NSC819558), elimusertib (BAY 1895344; NSC800525), molibresib (GSK525762; NSC774829), temuterkib (LY3214996; NSC803410), venetoclax (NSC766270), alisertib (NSC759677), olaparib (NSC753686), talazoparib (NSC767125), erdafitinib (NSC781556), ipatasertib (NSC767898), cabozantinib (NSC761068), nintedanib (NSC756659), abemaciclib (NSC768073), docetaxel (NSC628503), trametinib (NSC758246), and sapanisertib (NSC764658) were obtained from the National Cancer Institute (NCI) Developmental Therapeutics Program Chemical Repository. The FDA-approved anticancer drug set is available from the Developmental Therapeutics Program. […] The stock solutions were prepared in dimethyl sulfoxide (DMSO, Sigma-Aldrich, St. Louis, MO, cat. D2650) at 800-fold the tested concentration and stored at -70 degrees C prior to their use. All drugs and investigational agents were tested over a range starting from a high concentration at or near the clinical Cmax and decreasing in half-log increments. If the clinical Cmax for an agent had not been determined, the highest concentration tested was 10 microM.
Cell Culture. All cells were maintained in an incubator at 37 degrees C and 5% CO2 with 95% humidity. The PDC lines were cultured according to standard operating procedures established by the NCI PDMR (https://pdmr.cancer.gov/sops/default.htm). Briefly, all PDCs were thawed and cultured in Matrigel-coated flasks prepared with a working solution of 1X Ham's F-12 nutrient mix, without supplementation (Invitrogen, Waltham, MA, cat. 11765054), 100 U/mL penicillin-streptomycin (Invitrogen, cat. 15140122), and 2.5% Matrigel (Corning Inc., Corning, NY, cat. 354248) for the first three passages. All PDCs were cultured in complete DMEM/F-12 media containing advanced DMEM/F-12 (Invitrogen, cat. 12634028), 4.9% defined fetal bovine serum, heat inactivated (HyClone Laboratories Inc., Logan, UT, cat. SH30070.03HI), 389 ng/mL hydrocortisone (Sigma-Aldrich, cat. H4001), 9.7 ng/mL human EGF recombinant protein (Invitrogen, cat. PHG0313), 23.4 microg/mL adenine (Sigma-Aldrich, cat. A2786), 97.3 U/mL penicillin-streptomycin (Invitrogen, cat. 15140122), 1.9 mM L-glutamine (Invitrogen, cat. 25030081), and 9.7 microM Y-27632 dihydrochloride (Tocris Bioscience, Bristol, United Kingdom, cat. 1254). The PDCs were cultured in complete DMEM/F12 media without 9.7 microM Y-27632 dihydrochloride for at least two passages prior to the screen. The established cell line HOP-62 was cultured in RPMI 1640 medium, HEPES (Invitrogen, cat. 22400105) with 10% defined fetal bovine serum (HyClone Laboratories Inc., cat. SH30070.03) and 2 mM L-glutamine (Invitrogen, cat. 25030081). The pooled donor HUVEC were cultured in endothelial cell growth medium 2 (PromoCell, Heidelberg, Germany, cat. C-22011) and the hMSC were cultured in mesenchymal stem cell growth medium 2 (PromoCell, cat. C-28009). For all experiments, HUVEC and hMSC were used at passages </=5, while the malignant cell lines were used at passages </=15. […]

[1] = second compound 0.1 µM, first compound 0.0316 µM
[2] = second compound 0.1 µM, first compound 0.1 µM
[3] = second compound 0.1 µM, first compound 0.316 µM
[4] = second compound 0.1 µM, first compound 1 µM
[5] = second compound 0.1 µM, first compound 3.16 µM
[6] = second compound 0.1 µM, first compound 10 µM
[7] = second compound 0.316 µM, first compound 0.0316 µM
[8] = second compound 0.316 µM, first compound 0.1 µM
[9] = second compound 0.316 µM, first compound 0.316 µM
[10] = second compound 0.316 µM, first compound 1 µM
[11] = second compound 0.316 µM, first compound 3.16 µM
[12] = second compound 0.316 µM, first compound 10 µM
[13] = second compound 1 µM, first compound 0.0316 µM
[14] = second compound 1 µM, first compound 0.1 µM
[15] = second compound 1 µM, first compound 0.316 µM
[16] = second compound 1 µM, first compound 1 µM
[17] = second compound 1 µM, first compound 3.16 µM
[18] = second compound 1 µM, first compound 10 µM
[19] = second compound 3.16 µM, first compound 0.0316 µM
[20] = second compound 3.16 µM, first compound 0.1 µM
[21] = second compound 3.16 µM, first compound 0.316 µM
[22] = second compound 3.16 µM, first compound 1 µM
[23] = second compound 3.16 µM, first compound 3.16 µM
[24] = second compound 3.16 µM, first compound 10 µM
[25] = second compound 10 µM, first compound 0.0316 µM
[26] = second compound 10 µM, first compound 0.1 µM
[27] = second compound 10 µM, first compound 0.316 µM
[28] = second compound 10 µM, first compound 1 µM
[29] = second compound 10 µM, first compound 3.16 µM
[30] = second compound 10 µM, first compound 10 µM
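Also: spheroids exposed to compounds for seven days before readout.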
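For viability, T/C in this document: 100% = DMSO vehicle control luminescence of the spheroids.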

SMILES	IC50 (second compound 0.1 µM) [nM]	IC50 (second compound 0.316 µM) [nM]	IC50 (second compound 1 µM) [nM]	IC50 (second compound 3.16 µM) [nM]	IC50 (second compound 10 µM) [nM]	viability, T/C [1] [%]	viability, T/C [2] [%]	viability, T/C [3] [%]	viability, T/C [4] [%]	viability, T/C [5] [%]	viability, T/C [6] [%]	viability, T/C [7] [%]	viability, T/C [8] [%]	viability, T/C [9] [%]	viability, T/C [10] [%]	viability, T/C [11] [%]	viability, T/C [12] [%]	viability, T/C [13] [%]	viability, T/C [14] [%]	viability, T/C [15] [%]	also measured
COC(=O)c1ccc2c(C(=Nc3ccc(N(C)C(=O)CN4CCN(C)CC4)cc3)c3ccccc3)c(O)[nH]c2c1 + C=CC(=O)N1CCN(c2nc(=O)n(-c3c(C)ccnc3C(C)C)c3nc(-c4c(O)cccc4F)c(F)cc23)C(C)C1	> 10000	> 10000	> 10000	> 10000	> 10000	91.1	89.7	92.3	91.8	83.5	85	89	99.9	94	89.9	84.5	85.5	90.6	91.2	84.9	viability, T/C [16]: 76.3%; viability, T/C [17]: 77.3%; viability, T/C [18]: 83.4%; viability, T/C [19]: 93%; viability, T/C [20]: 101%; viability, T/C [21]: 88.3%; viability, T/C [22]: 88.7%; viability, T/C [23]: 75%; viability, T/C [24]: 85.7%; viability, T/C [25]: 95.6%; viability, T/C [26]: 104%; viability, T/C [27]: 93.5%; viability, T/C [28]: 87.4%; viability, T/C [29]: 77.5%; viability, T/C [30]: 75.4%
COc1cc(Nc2ncc3c(n2)-c2ccc(Cl)cc2C(c2c(F)cccc2OC)=NC3)ccc1C(=O)O + C=CC(=O)N1CCN(c2nc(=O)n(-c3c(C)ccnc3C(C)C)c3nc(-c4c(O)cccc4F)c(F)cc23)C(C)C1	89.7	107	59.2	110	122	86	40	32.7	28.6	18.9	9.83	86.7	45.4	35	28.8	19.5	10.7	56.4	43.1	36.6	viability, T/C [16]: 29.3%; viability, T/C [17]: 21.4%; viability, T/C [18]: 12.3%; viability, T/C [19]: 77.6%; viability, T/C [20]: 45%; viability, T/C [21]: 39.1%; viability, T/C [22]: 29.1%; viability, T/C [23]: 19.2%; viability, T/C [24]: 13.6%; viability, T/C [25]: 93.3%; viability, T/C [26]: 47.6%; viability, T/C [27]: 38.4%; viability, T/C [28]: 32.4%; viability, T/C [29]: 22.4%; viability, T/C [30]: 17.5%
